# From patent US20210085640A1, “ACYLATED CATECHIN POLYPHENOLS AND METHODS OF THEIR USE FOR THE TREATMENT OF CANCER” (Flagship Pioneering Innovations V, Inc., priority 2018, published 2021)
# How the values were obtained:
# Format in all cases: cell-based
# [1] = tested on: HCT 116 colorectal cancer cells; assay: Cancer cell survival (CellTiter-Glo), HCT 116; details: Homo sapiens, HCT 116 cells, 72 h
# How it was run: (§1)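 CellTiter-Glo luminescence after 72 h compound exposure (37 C, 5% CO2; nine concentration levels, triplicate) of overnight-plated cells at 4×10^3 per well. IC50 calculated from survival % relative to untreated cells after medium-background subtraction.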
# AGS stomach cancer cells = assay: Cancer cell survival (CellTiter-Glo), AGS
# How it was run: as §1
# [2] = tested on: PC-3 prostate cancer cells; assay: Cancer cell survival (CellTiter-Glo), PC-3; details: Homo sapiens, PC-3 cells, 72 h
# How it was run: as §1
# [3] = tested on: Daudi lymphoma cancer cells; assay: Cancer cell survival (CellTiter-Glo), Daudi; details: Homo sapiens, 72 h
# How it was run: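 Daudi cells (4×10^3/well) were exposed for 72 h at 37 °C to nine concentrations of compound, added as 10× solutions spanning 1 μM–10 mM (fatty acids) or 100 nM–1 mM (others). CellTiter-Glo luminescence gave % survival versus untreated, medium-blank corrected; IC50 derived.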
# T24 bladder cancer cells = assay: Cancer cell survival (CellTiter-Glo), T24; details: Homo sapiens
# How it was run: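 Viability by CellTiter-Glo after 72 h compound treatment of T24 bladder cancer cells (4×10^3/well, plated the night before), nine concentration levels in triplicate. Percent survival normalised to untreated cells minus medium background, from which IC50 was determined.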
# MCF7 breast cancer cells = assay: Cancer cell survival (CellTiter-Glo), MCF7; details: Homo sapiens, 72 h
# How it was run: as §1
# A-431 skin cancer cells = assay: Cancer cell survival (CellTiter-Glo), A-431; details: Homo sapiens, A-431 cells, 72 h
# How it was run: as §1
# A549 lung cancer cells = assay: Cancer cell survival (CellTiter-Glo), A549; details: Homo sapiens, 72 h
# How it was run: as §1
# [4] = 101 nM, read-out: Cell survival at given concentration
# [5] = 318 nM, read-out: Cell survival at given concentration
# [6] = 1 μM, read-out: Cell survival at given concentration
# [7] = 3 μM, read-out: Cell survival at given concentration
# [8] = 10 μM, read-out: Cell survival at given concentration
# [9] = 32 μM, read-out: Cell survival at given concentration
# [10] = 100 μM, read-out: Cell survival at given concentration
# [11] = 316 μM, read-out: Cell survival at given concentration
# [12] = 1000 μM, read-out: Cell survival at given concentration
smiles,measurement,setting,value
"Oc1cc(O)c2c(c1)O[C@H](c1cc(O)c(O)c(O)c1)[C@H](O)C2 [EGC, epigallocatechin]",viability at 0.101 µM,[1]; [4],99%
same,viability at 0.318 µM,[1]; [5],98%
same,viability at 1 µM,[1]; [6],100%
same,viability at 3 µM,[1]; [7],101%
same,viability at 10 µM,[1]; [8],99%
same,viability at 32 µM,[1]; [9],97%
same,viability at 100 µM,[1]; [10],1%
same,viability at 316 µM,[1]; [11],0%
same,viability at 1000 µM,[1]; [12],0%
same,IC50,[1]; Table 6.1,50.3 µM
same,viability at 0.101 µM,"AGS stomach cancer cells; 72 h, 101 nM, read-out: Cell survival at given concentration",103%
same,viability at 0.318 µM,"AGS stomach cancer cells; 72 h, 318 nM, read-out: Cell survival at given concentration",103%
same,viability at 1 µM,"AGS stomach cancer cells; 72 h, 1 μM, Table 10.1, read-out: Cell survival at given concentration",108%
same,viability at 3 µM,"AGS stomach cancer cells; 72 h, 3 μM, Table 10.1, read-out: Cell survival at given concentration",105%
same,viability at 10 µM,"AGS stomach cancer cells; 72 h, 10 μM, Table 10.1, read-out: Cell survival at given concentration",104%
same,viability at 32 µM,"AGS stomach cancer cells; 72 h, 32 μM, Table 10.1, read-out: Cell survival at given concentration",104%
same,viability at 100 µM,"AGS stomach cancer cells; 72 h, 100 μM, Table 10.1, read-out: Cell survival at given concentration",107%
same,viability at 316 µM,"AGS stomach cancer cells; 72 h, 316 μM, read-out: Cell survival at given concentration",80%
same,viability at 1000 µM,"AGS stomach cancer cells; 72 h, 1000 μM, read-out: Cell survival at given concentration",8%
same,IC50,AGS stomach cancer cells; Table 10.1,477 µM
same,viability at 0.101 µM,[2]; [4],103%
same,viability at 0.318 µM,[2]; [5],99%
same,viability at 1 µM,[2]; [6],100%
same,viability at 3 µM,[2]; [7],101%
same,viability at 10 µM,[2]; [8],102%
same,viability at 32 µM,[2]; [9],98%
same,viability at 100 µM,[2]; [10],96%
same,viability at 316 µM,[2]; [11],96%
same,viability at 1000 µM,[2]; [12],36%
same,IC50,[2]; Table 8.1,899 µM
same,viability at 0.101 µM,[3]; [4],100%
same,viability at 0.318 µM,[3]; [5],101%
same,viability at 1 µM,[3]; [6],101%
same,viability at 3 µM,[3]; [7],103%
same,viability at 10 µM,[3]; [8],102%
same,viability at 32 µM,[3]; [9],99%
same,viability at 100 µM,[3]; [10],0%
same,viability at 316 µM,[3]; [11],0%
same,viability at 1000 µM,[3]; [12],0%
same,IC50,[3]; Table 4.1,47.5 µM
same,viability at 0.101 µM,"T24 bladder cancer cells; T-24, 101 nM, 72 h, read-out: Cell survival at given concentration",99%
same,viability at 0.318 µM,"T24 bladder cancer cells; T-24, 318 nM, 72 h, read-out: Cell survival at given concentration",103%
same,viability at 1 µM,"T24 bladder cancer cells; T-24, 1 μM, 72 h, read-out: Cell survival at given concentration",103%
same,viability at 3 µM,"T24 bladder cancer cells; T-24, 3 μM, 72 h, read-out: Cell survival at given concentration",101%
same,viability at 10 µM,"T24 bladder cancer cells; T-24, 10 μM, 72 h, read-out: Cell survival at given concentration",100%
same,viability at 32 µM,"T24 bladder cancer cells; T-24, 32 μM, 72 h, read-out: Cell survival at given concentration",84%
same,viability at 100 µM,"T24 bladder cancer cells; T-24, 100 μM, 72 h, read-out: Cell survival at given concentration",0%
same,viability at 316 µM,"T24 bladder cancer cells; T-24, 316 μM, 72 h, read-out: Cell survival at given concentration",0%
same,viability at 1000 µM,"T24 bladder cancer cells; T-24, 1000 μM, 72 h, read-out: Cell survival at given concentration",0%
same,IC50,"T24 bladder cancer cells; T-24, 72 h, Table 3.1, read-out: 1050",40 µM
same,viability at 0.101 µM,MCF7 breast cancer cells; [4],93%
same,viability at 0.318 µM,MCF7 breast cancer cells; [5],97%
same,viability at 1 µM,MCF7 breast cancer cells; [6],97%
same,viability at 3 µM,MCF7 breast cancer cells; [7],102%
same,viability at 10 µM,MCF7 breast cancer cells; [8],92%
same,viability at 32 µM,MCF7 breast cancer cells; [9],100%
same,viability at 100 µM,MCF7 breast cancer cells; [10],90%
same,viability at 316 µM,MCF7 breast cancer cells; [11],56%
same,viability at 1000 µM,MCF7 breast cancer cells; [12],2%
same,IC50,MCF7 breast cancer cells; Table 5.1,355 µM
same,viability at 0.101 µM,A-431 skin cancer cells; [4],103%
same,viability at 0.318 µM,A-431 skin cancer cells; [5],103%
same,viability at 1 µM,A-431 skin cancer cells; [6],102%
same,viability at 3 µM,A-431 skin cancer cells; [7],102%
same,viability at 10 µM,A-431 skin cancer cells; [8],98%
same,viability at 32 µM,A-431 skin cancer cells; [9],96%
same,viability at 100 µM,A-431 skin cancer cells; [10],95%
same,viability at 316 µM,A-431 skin cancer cells; [11],60%
same,viability at 1000 µM,A-431 skin cancer cells; [12],0%
same,IC50,A-431 skin cancer cells; Table 9.1,385 µM
same,viability at 0.101 µM,A549 lung cancer cells; [4],98%
same,viability at 0.318 µM,A549 lung cancer cells; [5],100%
same,viability at 1 µM,A549 lung cancer cells; [6],100%
same,viability at 3 µM,A549 lung cancer cells; [7],100%
same,viability at 10 µM,A549 lung cancer cells; [8],94%
same,viability at 32 µM,A549 lung cancer cells; [9],96%
same,viability at 100 µM,A549 lung cancer cells; [10],94%
same,viability at 316 µM,A549 lung cancer cells; [11],81%
same,viability at 1000 µM,A549 lung cancer cells; [12],9%
same,IC50,A549 lung cancer cells; Table 7.1,640 µM
